Experimental data from patent publication US20100267561A1, “HERBICIDAL PYRIDAZINONE DERIVATIVES” (priority 2007, published 2010).

Assays:
[1] = test system: winter barley (HORVX, Hordeum vulgare); test: Test G mixtures of Compound 26 with crop safeners, postemergence plant response; assay type: in vivo; conditions: applied alone
Experimental: (§1) This test evaluated the effect of mixtures of Compound 26 with commercial crop safeners cloquintocet-mexyl, mefenpyr-diethyl, and fenchlorazole-ethyl on three plant species. Seeds of winter wheat (TRZAW, Triticum aestivum), winter barley (HORVX, Hordeum vulgare), and wild oat (AVEFA, Avena fatua) (a weed) were planted into a silt loam soil. Plants from these seeds were treated postemergence using test chemicals formulated in a non-phytotoxic solvent mixture that included a surfactant. Plants ranged in height from 6 to 10 cm (2- to 3-leaf stage).
(§2) Plants were grown in a greenhouse using supplemental lighting to maintain a photoperiod of about 14 hours; daytime and nighttime temperatures were about 22-26° C. and 15-19° C., respectively. Balanced fertilizer was applied through the watering system. Treatments consisted of Compound 26 and the above mentioned safeners alone and in combination using a spray volume of 281 L/ha. Each treatment was replicated four times. Treated plants and controls were maintained in a greenhouse for 15 days, after which time all treated plants were compared to controls and visually evaluated. Plant response ratings were calculated as the means of the four replicates based on a scale of 0 to 100 where 0 is no effect and 100 is complete control and are summarized in Tables G1 to G3. Because the safeners alone caused no injury at the rates tested, the expected effect of a mixture of Compound 26 with a safener is the same as the observed effect of Compound 26 alone.
(§3) The highest application rate of each safener was tested alone to confirm the absence of herbicidal activity on the test species when appled postemergence at 125 g ai/ha. Therefore, an extrapolated result of zero for each safener alone at 16, 31, or 62 g ai/ha was used to calculate the mixture response of Compound 26 and these safener application rates.

[2] = test system: winter wheat (TRZAW, Triticum aestivum); test: as above; assay type: in vivo; conditions: applied alone
Experimental: as §1, §2, §3

For `CCc1c(C)c(-c2ccc(Cl)cc2)nn1-c1c(O)cnn(C)c1=O` [Compound 26, 4-[3-(4-chlorophenyl)-5-ethyl-4-methyl-1H-pyrazol-1-yl]-5-hydroxy-2-methyl-3(2H)-pyridazinone], the “HORVX Obsd. (observed effect) plant response rating, scale 0 to 100” value ([1]; 62 g a.i./ha) was 19, the “HORVX Obsd. (observed effect) plant response rating, scale 0 to 100” value ([1]; 125 g a.i./ha) was 34 and the “HORVX Obsd. (observed effect) plant response rating, scale 0 to 100” value ([1]; 250 g a.i./ha) was 45. The “TRZAW Obsd. (observed effect) plant response rating, scale 0 to 100” value ([2]; 62 g a.i./ha) was 10, the “TRZAW Obsd. (observed effect) plant response rating, scale 0 to 100” value ([2]; 125 g a.i./ha) was 9 and the “TRZAW Obsd. (observed effect) plant response rating, scale 0 to 100” value ([2]; 250 g a.i./ha) was 36.
